Active and inactive are the calls of the source. Rule as the data show it, for most assays here: actives have a measured Kd and inactives only a lower limit.

Experiment [1] deals with T1, Ras-related protein Rab-27A (Homo sapiens, UniProt P51159).
T1 sequence (P51159 whole entry): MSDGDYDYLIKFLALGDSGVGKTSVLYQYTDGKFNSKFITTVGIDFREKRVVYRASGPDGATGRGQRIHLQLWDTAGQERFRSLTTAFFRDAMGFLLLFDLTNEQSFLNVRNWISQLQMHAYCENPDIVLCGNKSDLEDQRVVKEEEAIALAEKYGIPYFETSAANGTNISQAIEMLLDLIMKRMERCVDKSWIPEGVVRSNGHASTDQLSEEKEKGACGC

Experiment [2] concerns the target Tyrosine-protein kinase JAK1 (Homo sapiens, UniProt P23458).
In experiment [3] the target is Non-receptor tyrosine-protein kinase TYK2 (Homo sapiens, UniProt P29597).
Chain of Non-receptor tyrosine-protein kinase TYK2 (P29597 whole entry): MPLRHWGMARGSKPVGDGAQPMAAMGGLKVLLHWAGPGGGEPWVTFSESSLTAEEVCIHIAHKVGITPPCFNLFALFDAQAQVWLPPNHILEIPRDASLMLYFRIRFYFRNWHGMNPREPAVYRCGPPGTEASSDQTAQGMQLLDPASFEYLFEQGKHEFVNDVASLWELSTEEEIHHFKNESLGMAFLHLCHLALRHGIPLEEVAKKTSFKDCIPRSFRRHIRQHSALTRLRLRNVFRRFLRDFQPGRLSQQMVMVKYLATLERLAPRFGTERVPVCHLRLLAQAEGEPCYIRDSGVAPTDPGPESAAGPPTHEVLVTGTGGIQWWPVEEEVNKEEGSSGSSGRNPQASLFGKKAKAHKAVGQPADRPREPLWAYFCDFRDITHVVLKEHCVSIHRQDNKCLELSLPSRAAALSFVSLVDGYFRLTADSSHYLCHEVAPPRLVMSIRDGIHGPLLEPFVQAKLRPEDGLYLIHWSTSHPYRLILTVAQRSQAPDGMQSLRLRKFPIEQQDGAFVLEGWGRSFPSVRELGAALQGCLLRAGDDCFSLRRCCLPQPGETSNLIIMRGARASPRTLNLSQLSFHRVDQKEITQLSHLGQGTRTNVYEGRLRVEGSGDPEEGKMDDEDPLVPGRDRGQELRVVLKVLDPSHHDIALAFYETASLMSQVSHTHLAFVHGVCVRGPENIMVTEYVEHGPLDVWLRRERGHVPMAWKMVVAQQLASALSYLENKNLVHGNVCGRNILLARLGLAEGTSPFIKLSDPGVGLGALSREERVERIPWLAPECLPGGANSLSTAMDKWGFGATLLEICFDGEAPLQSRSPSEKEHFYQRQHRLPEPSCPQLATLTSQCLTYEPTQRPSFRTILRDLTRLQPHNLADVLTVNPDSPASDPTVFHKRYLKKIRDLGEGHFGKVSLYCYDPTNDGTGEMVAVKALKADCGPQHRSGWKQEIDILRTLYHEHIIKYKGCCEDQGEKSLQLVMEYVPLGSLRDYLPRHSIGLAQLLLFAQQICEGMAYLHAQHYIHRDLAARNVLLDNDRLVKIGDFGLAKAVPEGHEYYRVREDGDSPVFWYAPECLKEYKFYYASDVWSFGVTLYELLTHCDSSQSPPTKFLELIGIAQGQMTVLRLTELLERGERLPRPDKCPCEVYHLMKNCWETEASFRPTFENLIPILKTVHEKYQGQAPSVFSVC
The target of experiment [4] is Mitotic checkpoint serine/threonine-protein kinase BUB1 (Homo sapiens, UniProt O43683).
Experiment [5] deals with Cyclin-dependent kinase 12 (Homo sapiens, UniProt Q9NYV4).
Chain of Cyclin-dependent kinase 12 (Q9NYV4 whole entry): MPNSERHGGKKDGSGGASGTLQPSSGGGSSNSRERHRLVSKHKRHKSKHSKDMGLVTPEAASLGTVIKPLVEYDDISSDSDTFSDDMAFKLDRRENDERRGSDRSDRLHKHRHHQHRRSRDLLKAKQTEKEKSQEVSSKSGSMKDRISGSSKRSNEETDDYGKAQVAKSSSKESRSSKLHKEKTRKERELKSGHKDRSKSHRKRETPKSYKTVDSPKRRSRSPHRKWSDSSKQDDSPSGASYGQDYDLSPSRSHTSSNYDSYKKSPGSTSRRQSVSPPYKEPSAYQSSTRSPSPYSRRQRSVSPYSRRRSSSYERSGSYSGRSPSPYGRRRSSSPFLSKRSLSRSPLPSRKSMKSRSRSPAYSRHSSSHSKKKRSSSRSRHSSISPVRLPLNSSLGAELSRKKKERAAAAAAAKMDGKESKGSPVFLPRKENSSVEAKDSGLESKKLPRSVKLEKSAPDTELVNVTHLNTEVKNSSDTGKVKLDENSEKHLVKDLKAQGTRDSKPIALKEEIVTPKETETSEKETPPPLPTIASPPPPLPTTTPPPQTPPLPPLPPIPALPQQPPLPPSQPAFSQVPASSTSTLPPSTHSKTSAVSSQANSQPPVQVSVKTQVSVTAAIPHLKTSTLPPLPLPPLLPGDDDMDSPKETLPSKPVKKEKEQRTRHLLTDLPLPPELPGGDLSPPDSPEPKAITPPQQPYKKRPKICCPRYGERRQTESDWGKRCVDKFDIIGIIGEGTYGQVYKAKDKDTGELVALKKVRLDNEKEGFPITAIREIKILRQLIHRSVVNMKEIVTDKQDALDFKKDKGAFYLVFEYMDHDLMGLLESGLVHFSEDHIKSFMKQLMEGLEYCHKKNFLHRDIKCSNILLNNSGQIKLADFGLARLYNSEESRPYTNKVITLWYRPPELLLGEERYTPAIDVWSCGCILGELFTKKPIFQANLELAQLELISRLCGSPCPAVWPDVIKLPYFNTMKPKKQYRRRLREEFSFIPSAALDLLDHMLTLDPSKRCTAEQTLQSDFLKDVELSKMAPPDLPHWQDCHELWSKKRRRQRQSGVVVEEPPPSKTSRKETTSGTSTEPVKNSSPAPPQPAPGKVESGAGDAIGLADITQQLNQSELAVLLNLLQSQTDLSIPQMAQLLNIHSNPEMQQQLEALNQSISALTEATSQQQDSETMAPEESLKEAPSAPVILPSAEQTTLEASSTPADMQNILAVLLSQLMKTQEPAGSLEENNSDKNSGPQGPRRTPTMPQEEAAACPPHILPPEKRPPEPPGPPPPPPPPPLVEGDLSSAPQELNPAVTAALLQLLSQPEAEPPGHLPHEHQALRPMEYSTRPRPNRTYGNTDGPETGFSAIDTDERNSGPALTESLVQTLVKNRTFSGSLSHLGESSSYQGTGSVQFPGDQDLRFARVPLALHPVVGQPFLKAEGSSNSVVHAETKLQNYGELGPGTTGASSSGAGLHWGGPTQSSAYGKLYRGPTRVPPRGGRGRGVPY
The target in experiment [6] is T2, Serine/threonine-protein kinase ICK (Homo sapiens, UniProt Q9UPZ9).
T2 sequence (Q9UPZ9 whole entry): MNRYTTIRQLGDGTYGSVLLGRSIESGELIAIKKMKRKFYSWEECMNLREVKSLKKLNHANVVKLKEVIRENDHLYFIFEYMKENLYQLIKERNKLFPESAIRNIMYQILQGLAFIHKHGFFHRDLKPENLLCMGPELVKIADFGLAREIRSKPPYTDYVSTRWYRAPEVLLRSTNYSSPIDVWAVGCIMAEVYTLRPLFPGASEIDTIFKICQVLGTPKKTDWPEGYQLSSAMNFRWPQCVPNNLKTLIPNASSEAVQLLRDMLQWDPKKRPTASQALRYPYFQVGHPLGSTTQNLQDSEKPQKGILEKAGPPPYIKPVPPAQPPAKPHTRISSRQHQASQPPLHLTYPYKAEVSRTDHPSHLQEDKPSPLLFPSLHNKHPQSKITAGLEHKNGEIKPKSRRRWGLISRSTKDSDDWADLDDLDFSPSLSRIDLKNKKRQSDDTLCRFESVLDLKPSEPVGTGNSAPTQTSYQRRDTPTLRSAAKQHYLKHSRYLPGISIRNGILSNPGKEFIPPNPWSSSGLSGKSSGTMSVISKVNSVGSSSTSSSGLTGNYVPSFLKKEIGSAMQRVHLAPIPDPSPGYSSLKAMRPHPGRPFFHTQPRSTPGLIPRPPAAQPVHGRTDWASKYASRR

Experiment [7] concerns the target cAMP-dependent protein kinase catalytic subunit beta (Homo sapiens, UniProt P22694).
The target in experiment [8] is T3, ATP-dependent RNA helicase DDX1 (Homo sapiens, UniProt Q92499).
T3 sequence (Q92499 whole entry): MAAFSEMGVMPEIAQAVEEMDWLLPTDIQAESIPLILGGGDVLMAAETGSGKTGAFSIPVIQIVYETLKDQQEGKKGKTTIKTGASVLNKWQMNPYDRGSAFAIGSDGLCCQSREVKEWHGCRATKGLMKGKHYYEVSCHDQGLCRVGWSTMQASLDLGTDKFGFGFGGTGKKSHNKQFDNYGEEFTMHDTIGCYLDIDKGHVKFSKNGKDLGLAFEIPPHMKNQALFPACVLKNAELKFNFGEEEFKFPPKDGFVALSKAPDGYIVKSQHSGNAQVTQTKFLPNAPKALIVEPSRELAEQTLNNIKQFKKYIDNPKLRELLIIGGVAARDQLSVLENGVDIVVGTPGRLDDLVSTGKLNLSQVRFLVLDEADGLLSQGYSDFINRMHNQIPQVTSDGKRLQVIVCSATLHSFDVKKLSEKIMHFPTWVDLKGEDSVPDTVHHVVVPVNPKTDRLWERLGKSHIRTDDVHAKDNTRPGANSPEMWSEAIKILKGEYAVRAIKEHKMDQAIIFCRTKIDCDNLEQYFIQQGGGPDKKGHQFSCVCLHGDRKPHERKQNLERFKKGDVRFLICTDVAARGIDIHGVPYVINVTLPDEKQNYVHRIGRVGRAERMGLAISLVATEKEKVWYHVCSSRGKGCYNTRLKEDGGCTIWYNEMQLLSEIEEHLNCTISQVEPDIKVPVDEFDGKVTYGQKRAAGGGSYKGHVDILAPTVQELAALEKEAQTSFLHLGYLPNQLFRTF

The target in experiment [9] is Casein kinase I isoform delta (Homo sapiens, UniProt P48730).
Chain of Casein kinase I isoform delta (P48730 whole entry, canonical isoform): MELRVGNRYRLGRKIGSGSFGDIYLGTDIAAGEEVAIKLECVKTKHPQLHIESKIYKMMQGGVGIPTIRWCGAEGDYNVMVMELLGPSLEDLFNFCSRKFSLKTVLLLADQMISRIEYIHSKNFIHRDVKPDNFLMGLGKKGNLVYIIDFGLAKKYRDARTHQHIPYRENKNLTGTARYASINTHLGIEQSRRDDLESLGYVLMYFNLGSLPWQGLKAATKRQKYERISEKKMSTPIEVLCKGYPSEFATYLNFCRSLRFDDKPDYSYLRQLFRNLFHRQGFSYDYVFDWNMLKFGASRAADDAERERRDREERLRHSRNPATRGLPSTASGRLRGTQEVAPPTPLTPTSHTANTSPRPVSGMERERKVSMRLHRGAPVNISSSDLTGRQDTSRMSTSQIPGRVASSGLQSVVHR
Experiment [10] concerns the target Tyrosine-protein kinase Fer (Homo sapiens, UniProt P16591).
Experiment [11] has as its target Protein-tyrosine kinase 2-beta (Homo sapiens, UniProt Q14289).
In experiment [12] the target is T4, Mitogen-activated protein kinase kinase kinase kinase 3 (Homo sapiens, UniProt Q8IVH8).
T4 sequence (Q8IVH8 whole entry): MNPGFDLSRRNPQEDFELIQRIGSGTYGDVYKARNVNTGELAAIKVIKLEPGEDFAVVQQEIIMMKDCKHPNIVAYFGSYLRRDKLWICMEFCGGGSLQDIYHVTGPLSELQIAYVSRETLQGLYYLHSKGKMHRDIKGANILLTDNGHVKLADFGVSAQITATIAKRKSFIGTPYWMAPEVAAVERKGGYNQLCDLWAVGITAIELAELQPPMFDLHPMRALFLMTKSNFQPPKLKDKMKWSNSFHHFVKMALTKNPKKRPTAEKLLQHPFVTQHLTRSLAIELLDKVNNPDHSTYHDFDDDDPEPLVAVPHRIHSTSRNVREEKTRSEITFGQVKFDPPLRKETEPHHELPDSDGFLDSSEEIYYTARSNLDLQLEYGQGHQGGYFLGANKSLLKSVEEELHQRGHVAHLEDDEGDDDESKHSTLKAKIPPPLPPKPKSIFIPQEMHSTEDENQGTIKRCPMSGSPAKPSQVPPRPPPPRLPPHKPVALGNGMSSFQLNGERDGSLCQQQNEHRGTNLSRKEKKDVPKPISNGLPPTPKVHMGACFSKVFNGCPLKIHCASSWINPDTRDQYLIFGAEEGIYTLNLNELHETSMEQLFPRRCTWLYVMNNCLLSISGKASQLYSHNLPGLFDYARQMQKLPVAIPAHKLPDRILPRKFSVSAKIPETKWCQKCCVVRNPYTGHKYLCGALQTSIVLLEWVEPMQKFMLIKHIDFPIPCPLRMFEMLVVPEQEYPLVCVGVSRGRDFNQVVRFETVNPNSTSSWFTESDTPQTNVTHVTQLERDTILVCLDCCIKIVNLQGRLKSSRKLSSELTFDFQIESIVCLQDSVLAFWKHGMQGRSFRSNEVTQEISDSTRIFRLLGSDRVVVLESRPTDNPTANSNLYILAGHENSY
Also: in the data inactive means no Kd found up to 30 µM.

Chain of Tyrosine-protein kinase JAK1 (P23458 whole entry): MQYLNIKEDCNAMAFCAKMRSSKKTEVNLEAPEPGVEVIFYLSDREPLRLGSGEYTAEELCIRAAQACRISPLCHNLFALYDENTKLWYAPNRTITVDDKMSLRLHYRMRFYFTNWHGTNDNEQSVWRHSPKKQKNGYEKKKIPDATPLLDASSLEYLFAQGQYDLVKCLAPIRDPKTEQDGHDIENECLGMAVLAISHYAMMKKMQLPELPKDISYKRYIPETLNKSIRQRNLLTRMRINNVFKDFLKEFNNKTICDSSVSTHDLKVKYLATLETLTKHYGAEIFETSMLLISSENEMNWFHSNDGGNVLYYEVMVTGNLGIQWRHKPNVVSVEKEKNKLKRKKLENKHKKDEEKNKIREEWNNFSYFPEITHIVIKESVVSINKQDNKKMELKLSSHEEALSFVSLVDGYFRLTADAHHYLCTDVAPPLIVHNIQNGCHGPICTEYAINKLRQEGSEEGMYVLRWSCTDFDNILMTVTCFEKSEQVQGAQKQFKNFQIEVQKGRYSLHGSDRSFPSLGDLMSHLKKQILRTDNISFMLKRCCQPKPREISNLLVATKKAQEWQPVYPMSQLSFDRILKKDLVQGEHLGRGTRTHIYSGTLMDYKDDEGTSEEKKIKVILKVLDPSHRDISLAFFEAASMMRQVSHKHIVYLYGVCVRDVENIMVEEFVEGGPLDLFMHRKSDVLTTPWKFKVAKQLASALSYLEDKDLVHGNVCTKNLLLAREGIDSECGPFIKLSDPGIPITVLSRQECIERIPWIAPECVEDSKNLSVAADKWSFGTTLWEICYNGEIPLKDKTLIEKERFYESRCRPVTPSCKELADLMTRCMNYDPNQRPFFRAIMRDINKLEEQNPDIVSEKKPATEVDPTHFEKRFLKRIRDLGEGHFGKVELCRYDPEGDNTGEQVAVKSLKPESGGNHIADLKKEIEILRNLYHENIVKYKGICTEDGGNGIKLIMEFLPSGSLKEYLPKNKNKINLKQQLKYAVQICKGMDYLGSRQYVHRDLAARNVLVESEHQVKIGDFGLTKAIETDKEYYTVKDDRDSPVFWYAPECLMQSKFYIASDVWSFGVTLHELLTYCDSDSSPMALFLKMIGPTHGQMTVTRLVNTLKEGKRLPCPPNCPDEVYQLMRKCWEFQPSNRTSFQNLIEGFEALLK
Chain of Tyrosine-protein kinase Fer (P16591 whole entry): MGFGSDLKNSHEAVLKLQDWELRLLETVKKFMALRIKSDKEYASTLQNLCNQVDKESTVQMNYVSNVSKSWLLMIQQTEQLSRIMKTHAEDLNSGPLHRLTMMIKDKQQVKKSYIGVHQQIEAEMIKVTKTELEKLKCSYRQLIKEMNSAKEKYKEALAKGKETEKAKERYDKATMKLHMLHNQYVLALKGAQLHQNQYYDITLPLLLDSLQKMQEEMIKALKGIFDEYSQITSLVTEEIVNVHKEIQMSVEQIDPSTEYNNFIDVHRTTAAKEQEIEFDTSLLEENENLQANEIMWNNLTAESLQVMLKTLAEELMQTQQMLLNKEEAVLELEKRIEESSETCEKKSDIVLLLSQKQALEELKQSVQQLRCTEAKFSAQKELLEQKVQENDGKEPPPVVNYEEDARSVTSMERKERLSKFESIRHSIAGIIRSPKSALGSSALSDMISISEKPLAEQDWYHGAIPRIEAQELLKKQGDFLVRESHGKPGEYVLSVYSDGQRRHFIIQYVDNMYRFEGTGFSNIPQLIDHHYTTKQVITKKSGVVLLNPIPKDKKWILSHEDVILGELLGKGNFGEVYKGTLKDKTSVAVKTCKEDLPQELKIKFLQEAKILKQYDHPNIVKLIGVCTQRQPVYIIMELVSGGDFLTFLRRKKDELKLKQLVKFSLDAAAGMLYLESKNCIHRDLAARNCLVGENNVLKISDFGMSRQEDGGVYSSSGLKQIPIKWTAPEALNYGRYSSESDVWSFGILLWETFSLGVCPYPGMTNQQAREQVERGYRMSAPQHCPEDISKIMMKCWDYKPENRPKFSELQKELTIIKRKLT

Regarding `CNC(=O)c1cc(Oc2ccc(NC(=O)Nc3ccc(Cl)c(C(F)(F)F)c3)c(F)c2)ccn1` [REGORAFENIB], the Kd in [1], in experiment [2], in experiment [3], in [4], in experiment [5] and in [6] was > 30 µM (inactive) in each case. In addition, the Kd in experiment [7], in [8], in experiment [9], in experiment [10], in [11] and in experiment [12] was > 30 µM (inactive) in each case.
As for `COc1cc2nccc(Oc3ccc(NC(=O)Nc4cc(C)on4)c(Cl)c3)c2cc1OC` [TIVOZANIB], the Kd in experiment [1], in [2], in experiment [3], in [4], in experiment [5] and in [6] was > 30 µM (inactive) throughout. Further, the Kd in [7], in [8], in experiment [9], in [10], in [11] and in [12] was > 30 µM (inactive) each time.
Consider `CCCS(=O)(=O)Nc1ccc(F)c(C(=O)c2c[nH]c3ncc(-c4ccc(Cl)cc4)cc23)c1F` [VEMURAFENIB], for which the Kd in [1], in experiment [2], in experiment [3], in experiment [4], in experiment [5] and in experiment [6] was > 30 µM (inactive) in each case. Besides, the Kd in experiment [7], in [8], in [9], in experiment [10], in experiment [11] and in [12] was > 30 µM (inactive) in each case.
Take `N[C@@H]1CCCN(c2c(/C=C3\SC(=O)NC3=O)cccc2-c2ccccc2)C1`: the Kd in experiment [1], in experiment [2], in experiment [3], in experiment [4], in experiment [5] and in experiment [6] was > 30 µM (inactive) each time. The Kd in experiment [7], in experiment [8], in experiment [9], in experiment [10], in experiment [11] and in [12] was > 30 µM (inactive) throughout.
Consider `O=C(O)[C@]1(Cc2cccc(Nc3nccs3)n2)CC[C@@H](Oc2cccc(Cl)c2F)CC1` [MK-5108], for which the Kd in [1], in experiment [2], in [3], in experiment [4], in experiment [5] and in experiment [6] was > 30 µM (inactive) in each case. The Kd is > 30 µM (inactive) in experiment [7]; > 30 µM (inactive) in experiment [8]; > 30 µM (inactive) in experiment [9]; 1.54 µM (active) in experiment [10]; 0.343 µM (active) in experiment [11]; > 30 µM (inactive) in experiment [12].
For `COc1cc(OC)c(/C=C/S(=O)(=O)Cc2ccc(OC)c(NCC(=O)O)c2)c(OC)c1` [RIGOSERTIB], the Kd in experiment [1], in experiment [2], in experiment [3], in experiment [4], in experiment [5] and in [6] was > 30 µM (inactive) each time. Further, the Kd in experiment [7], in experiment [8], in experiment [9], in experiment [10], in [11] and in [12] was > 30 µM (inactive) each time.
On to `CC[C@@H]1C(=O)N(C)c2cnc(Nc3ccc(C(=O)N[C@H]4CC[C@H](N5CCN(CC6CC6)CC5)CC4)cc3OC)nc2N1C(C)C` [VOLASERTIB], for which the Kd in experiment [1], in [2], in experiment [3], in [4], in [5] and in [6] was > 30 µM (inactive) in each case. The Kd in [7], in [8], in experiment [9], in experiment [10], in experiment [11] and in experiment [12] was > 30 µM (inactive) throughout.
With `Cc1cc(-c2cc(O)ccc2Cl)cc2nnc(Nc3ccc(OCCN4CCCC4)cc3)nc12`, the Kd was > 30 µM (inactive) in experiment [1]; > 30 µM (inactive) in [2]; 0.0007 µM (active) in experiment [3]; > 30 µM (inactive) in experiment [4]; > 30 µM (inactive) in experiment [5]; > 30 µM (inactive) in experiment [6]. For the same compound, the Kd in experiment [7], in experiment [8], in experiment [9], in experiment [10], in experiment [11] and in experiment [12] was > 30 µM (inactive) each time.
In the case of `OCCn1cc(-c2cnc3nnn(Cc4ccc5ncccc5c4)c3n2)cn1` [PF-04217903], the Kd in [1], in [2], in [3], in experiment [4], in [5] and in experiment [6] was > 30 µM (inactive) in each case. The Kd in experiment [7], in [8], in [9], in [10], in experiment [11] and in experiment [12] was > 30 µM (inactive) in each case.

By Kd is commonly meant a measure of binding affinity in units of concentration.

The values above are taken from ChEMBL document CHEMBL3991601, “The target landscape of clinical kinase drugs” (Science, 2017).
